Laboratory results as given in paper PMC10176470, “Engaging a Non-catalytic Cysteine Residue Drives Potent and Selective Inhibition of Caspase-6” (Journal of the American Chemical Society, 2023).

Tests used:
Experiment in all cases: SILAC proteomics / in-gel fluorescence, competition of probe 13-t labeling by 3a
[1] = target: proteins of HEK293T cells transiently overexpressing caspase-6 (Homo sapiens, UniProt P34897); details: Comp; protein SHMT2 P34897
[2] = target: proteins of HEK293T cells transiently overexpressing caspase-6 (Homo sapiens, UniProt P46777); details: Comp; protein RPL5 P46777
[3] = target: proteins of HEK293T cells transiently overexpressing caspase-6 (Homo sapiens, UniProt P62906); details: Comp; protein RPL10A P62906
[4] = target: T1, proteins of HEK293T cells transiently overexpressing caspase-6 (Homo sapiens, UniProt O00410)
T1 sequence (O00410 1-1097): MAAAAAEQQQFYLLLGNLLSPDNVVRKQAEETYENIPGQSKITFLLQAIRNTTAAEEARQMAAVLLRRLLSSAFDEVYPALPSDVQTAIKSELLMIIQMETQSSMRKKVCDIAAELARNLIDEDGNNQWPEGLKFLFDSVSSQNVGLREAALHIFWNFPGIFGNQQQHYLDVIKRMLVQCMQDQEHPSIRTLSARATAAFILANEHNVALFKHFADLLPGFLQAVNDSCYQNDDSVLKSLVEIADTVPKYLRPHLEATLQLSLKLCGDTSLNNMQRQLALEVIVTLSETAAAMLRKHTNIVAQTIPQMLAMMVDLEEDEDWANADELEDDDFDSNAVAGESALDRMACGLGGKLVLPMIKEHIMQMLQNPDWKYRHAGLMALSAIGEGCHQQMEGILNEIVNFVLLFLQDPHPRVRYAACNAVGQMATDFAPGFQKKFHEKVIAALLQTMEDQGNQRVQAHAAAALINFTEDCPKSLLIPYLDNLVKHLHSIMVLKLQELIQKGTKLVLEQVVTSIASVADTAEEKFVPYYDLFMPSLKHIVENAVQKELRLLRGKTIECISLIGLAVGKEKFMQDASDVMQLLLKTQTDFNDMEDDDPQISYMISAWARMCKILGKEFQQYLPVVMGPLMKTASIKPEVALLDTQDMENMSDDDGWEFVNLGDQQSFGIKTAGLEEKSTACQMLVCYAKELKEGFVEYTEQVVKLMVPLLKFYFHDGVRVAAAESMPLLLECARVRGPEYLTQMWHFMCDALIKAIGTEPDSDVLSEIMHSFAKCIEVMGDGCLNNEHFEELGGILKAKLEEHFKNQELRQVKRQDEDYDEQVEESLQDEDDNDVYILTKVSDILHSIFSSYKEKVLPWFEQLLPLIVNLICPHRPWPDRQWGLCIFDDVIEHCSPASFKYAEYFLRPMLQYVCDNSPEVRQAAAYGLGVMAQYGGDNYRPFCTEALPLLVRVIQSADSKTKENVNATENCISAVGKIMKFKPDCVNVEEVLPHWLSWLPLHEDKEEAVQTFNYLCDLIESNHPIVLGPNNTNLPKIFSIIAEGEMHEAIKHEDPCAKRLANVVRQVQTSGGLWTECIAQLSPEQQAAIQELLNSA

[5] = target: proteins of HEK293T cells transiently overexpressing caspase-6 (Homo sapiens, UniProt Q15393); details: Comp; protein SF3B3 Q15393
[6] = target: T2, proteins of HEK293T cells transiently overexpressing caspase-6 (Homo sapiens, UniProt Q9BQG0); details: Comp; protein MYBBP1A Q9BQG0
T2 sequence (Q9BQG0 1-1328): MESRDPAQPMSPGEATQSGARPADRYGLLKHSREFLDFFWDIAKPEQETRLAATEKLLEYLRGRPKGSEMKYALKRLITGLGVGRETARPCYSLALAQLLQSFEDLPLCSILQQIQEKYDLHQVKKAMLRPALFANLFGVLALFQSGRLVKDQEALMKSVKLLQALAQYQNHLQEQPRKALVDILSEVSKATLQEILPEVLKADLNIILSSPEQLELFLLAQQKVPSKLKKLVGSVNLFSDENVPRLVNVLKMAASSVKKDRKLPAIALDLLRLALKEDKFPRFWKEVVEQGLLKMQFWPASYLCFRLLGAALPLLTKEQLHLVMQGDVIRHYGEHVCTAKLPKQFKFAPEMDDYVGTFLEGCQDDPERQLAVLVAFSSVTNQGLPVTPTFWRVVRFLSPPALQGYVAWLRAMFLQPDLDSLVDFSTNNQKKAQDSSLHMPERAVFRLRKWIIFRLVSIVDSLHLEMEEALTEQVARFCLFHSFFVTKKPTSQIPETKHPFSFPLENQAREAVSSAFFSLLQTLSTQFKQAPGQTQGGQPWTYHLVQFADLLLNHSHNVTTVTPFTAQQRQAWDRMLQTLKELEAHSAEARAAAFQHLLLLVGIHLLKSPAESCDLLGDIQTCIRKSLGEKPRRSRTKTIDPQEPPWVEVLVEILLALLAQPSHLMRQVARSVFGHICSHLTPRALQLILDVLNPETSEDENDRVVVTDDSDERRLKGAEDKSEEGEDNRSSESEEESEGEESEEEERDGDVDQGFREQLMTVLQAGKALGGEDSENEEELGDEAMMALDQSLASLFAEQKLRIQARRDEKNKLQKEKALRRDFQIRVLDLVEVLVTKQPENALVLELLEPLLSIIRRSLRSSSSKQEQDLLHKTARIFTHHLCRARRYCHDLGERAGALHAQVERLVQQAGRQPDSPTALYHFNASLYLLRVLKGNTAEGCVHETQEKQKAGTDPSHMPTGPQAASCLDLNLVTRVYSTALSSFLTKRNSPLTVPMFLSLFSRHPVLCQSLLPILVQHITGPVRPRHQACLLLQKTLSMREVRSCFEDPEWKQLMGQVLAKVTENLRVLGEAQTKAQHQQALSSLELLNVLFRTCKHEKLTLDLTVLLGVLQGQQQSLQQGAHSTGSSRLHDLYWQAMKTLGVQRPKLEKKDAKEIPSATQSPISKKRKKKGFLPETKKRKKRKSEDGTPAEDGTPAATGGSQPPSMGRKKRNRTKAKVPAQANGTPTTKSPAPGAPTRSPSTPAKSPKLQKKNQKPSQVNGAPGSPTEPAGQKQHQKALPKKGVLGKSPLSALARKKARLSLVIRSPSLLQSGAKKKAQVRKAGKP

[7] = protein IPO5 (O00410), Exp Comp, analysis C6, p 0.0039, 9 peptides

Sequence of proteins of HEK293T cells transiently overexpressing caspase-6 (Homo sapiens, UniProt P34897) (P34897 30-504): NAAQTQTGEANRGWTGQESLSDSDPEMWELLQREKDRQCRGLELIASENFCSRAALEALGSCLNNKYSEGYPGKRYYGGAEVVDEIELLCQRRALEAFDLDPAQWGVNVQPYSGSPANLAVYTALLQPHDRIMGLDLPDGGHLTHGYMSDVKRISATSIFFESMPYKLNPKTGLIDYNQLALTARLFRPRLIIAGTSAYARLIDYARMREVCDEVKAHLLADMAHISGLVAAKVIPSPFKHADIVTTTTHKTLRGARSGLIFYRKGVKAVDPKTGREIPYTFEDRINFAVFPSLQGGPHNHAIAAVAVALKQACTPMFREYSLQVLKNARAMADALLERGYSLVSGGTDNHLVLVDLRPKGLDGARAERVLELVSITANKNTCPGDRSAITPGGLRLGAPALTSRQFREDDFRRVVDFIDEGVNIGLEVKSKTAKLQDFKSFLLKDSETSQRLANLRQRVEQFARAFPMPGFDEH
Sequence of proteins of HEK293T cells transiently overexpressing caspase-6 (Homo sapiens, UniProt Q15393) (Q15393 whole entry): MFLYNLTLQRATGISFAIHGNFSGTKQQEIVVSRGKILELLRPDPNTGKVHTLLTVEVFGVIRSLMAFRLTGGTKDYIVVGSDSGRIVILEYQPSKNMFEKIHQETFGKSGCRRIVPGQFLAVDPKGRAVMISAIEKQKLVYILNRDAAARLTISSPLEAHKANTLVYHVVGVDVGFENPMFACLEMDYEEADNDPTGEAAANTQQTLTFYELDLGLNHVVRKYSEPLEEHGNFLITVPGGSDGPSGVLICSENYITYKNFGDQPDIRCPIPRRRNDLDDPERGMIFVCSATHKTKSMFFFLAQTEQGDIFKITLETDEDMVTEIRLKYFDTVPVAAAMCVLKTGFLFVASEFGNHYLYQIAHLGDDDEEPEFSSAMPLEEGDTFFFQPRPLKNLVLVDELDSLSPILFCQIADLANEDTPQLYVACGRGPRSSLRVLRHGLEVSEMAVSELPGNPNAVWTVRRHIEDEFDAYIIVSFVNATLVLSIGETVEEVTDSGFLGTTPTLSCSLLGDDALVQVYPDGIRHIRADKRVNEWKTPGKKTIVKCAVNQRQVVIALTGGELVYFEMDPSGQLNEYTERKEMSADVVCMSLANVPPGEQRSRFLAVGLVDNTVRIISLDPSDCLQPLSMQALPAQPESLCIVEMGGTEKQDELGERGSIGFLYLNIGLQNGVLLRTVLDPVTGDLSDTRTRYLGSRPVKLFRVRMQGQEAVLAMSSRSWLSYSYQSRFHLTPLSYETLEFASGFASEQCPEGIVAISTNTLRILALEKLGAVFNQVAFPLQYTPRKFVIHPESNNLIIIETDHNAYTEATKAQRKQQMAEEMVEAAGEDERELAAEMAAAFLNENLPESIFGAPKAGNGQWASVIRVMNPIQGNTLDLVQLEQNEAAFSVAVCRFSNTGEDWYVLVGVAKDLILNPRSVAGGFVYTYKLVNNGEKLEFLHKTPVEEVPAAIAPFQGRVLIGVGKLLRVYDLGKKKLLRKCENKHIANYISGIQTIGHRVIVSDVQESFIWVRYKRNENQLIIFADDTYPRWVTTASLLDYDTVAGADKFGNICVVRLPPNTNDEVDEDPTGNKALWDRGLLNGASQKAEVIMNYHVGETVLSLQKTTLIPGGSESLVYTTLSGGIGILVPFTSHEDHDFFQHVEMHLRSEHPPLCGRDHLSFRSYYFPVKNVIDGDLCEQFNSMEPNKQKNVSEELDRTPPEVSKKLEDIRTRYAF

## C=CS(=O)(=O)N1C[C@H](C(=O)Nc2ccc(OC(F)(F)F)cc2)C[C@@H](c2ccccc2)C1 [3a]
[1]
  enrich.exp.med: 0.5876
[2]
  enrich.exp.med: 0.7402
[3]
  enrich.exp.med: 0.678
[4]; Comp, protein IPO5 O00410
  enrich.exp.med: 1
[4]; [7]
  enrich.exp.med.lin: 2
  enrich.exp.med.log2: 1
[5]
  enrich.exp.med: 0.5835
[6]
  enrich.exp.med: 0.8156
